Laboratory results taken from paper PMC10507085, “Pharmacological inhibition of TBK1/IKKε blunts immunopathology in a murine model of SARS-CoV-2 infection” (Nature Communications, 2023).

Assays:
Experiment in all cases: biochemical
Design in all cases: KINOMEscan competition binding, DNA-tagged kinase against immobilised ligand, qPCR read-out
Settings in all cases: read-out: Percent Control
CLK2 = CLK2 (Homo sapiens, UniProt P49760)
Protocol: (§1) The KINOMEscan^TM kinase assays[65] were performed by Eurofins DiscoverX Corporation. For each kinase, the assay relies on the ability of the tested compound to compete against an immobilised ligand for binding to the DNA-tagged kinase. RT-qPCR is then used to measure the quantity of kinase molecules bound to the immobilised ligand, which is decreased if the tested compound competed with the kinase-ligand interaction. An 11-point 3-fold serial dilution of IDX compound was prepared in 100% DMSO at 100× final test concentration and subsequently diluted to 1× in the assay. […]

MAPK3 = MAPK3 (Homo sapiens, UniProt P27361)
Protocol: as §1

MAP2K6 = MAP2K6 (Homo sapiens, UniProt P52564)
Protocol: as §1

BMPR1A = BMPR1A (Homo sapiens, UniProt P36894)
Protocol: as §1

HIPK3 = HIPK3 (Homo sapiens, UniProt Q9H422)
Protocol: as §1

WNK4 = WNK4 (Homo sapiens, UniProt Q96J92)
Protocol: as §1

MTOR = MTOR (Homo sapiens, UniProt P42345)
Protocol: as §1

CSNK2A2 = CSNK2A2 (Homo sapiens, UniProt P19784)
Protocol: as §1

PIK3CD = PIK3CD (Homo sapiens, UniProt O00329)
Protocol: as §1

MAP2K7 = MAP2K7 (Homo sapiens, UniProt O14733)
Protocol: as §1

[1] = biological target: T1, RSK2(Kin.Dom.2-C-terminal) (Homo sapiens, UniProt P51812)
T1 construct: gene RPS6KA3; Kin.Dom.2 C-terminal
Protocol: as §1

EPHB6 = EPHB6 (Homo sapiens, UniProt O15197)
Protocol: as §1

PAK4 = PAK4 (Homo sapiens, UniProt O96013)
Protocol: as §1

[2] = biological target: T2, RSK4(Kin.Dom.2-C-terminal) (Homo sapiens, UniProt Q9UK32)
T2 construct: gene RPS6KA6; Kin.Dom.2 C-terminal
Protocol: as §1

KIAA0999 = biological target: T3, KIAA0999 (Homo sapiens, UniProt Q9Y2K2)
T3 construct: gene SIK3
Protocol: as §1

BMPR2 = BMPR2 (Homo sapiens, UniProt Q13873)
Protocol: as §1

EPHA5 = EPHA5 (Homo sapiens, UniProt P54756)
Protocol: as §1

RIOK3 = RIOK3 (Homo sapiens, UniProt O14730)
Protocol: as §1

CDK19 = CDK19 (Homo sapiens, UniProt Q9BWU1)
Protocol: as §1

Sequence of WNK4 (Q96J92 whole entry): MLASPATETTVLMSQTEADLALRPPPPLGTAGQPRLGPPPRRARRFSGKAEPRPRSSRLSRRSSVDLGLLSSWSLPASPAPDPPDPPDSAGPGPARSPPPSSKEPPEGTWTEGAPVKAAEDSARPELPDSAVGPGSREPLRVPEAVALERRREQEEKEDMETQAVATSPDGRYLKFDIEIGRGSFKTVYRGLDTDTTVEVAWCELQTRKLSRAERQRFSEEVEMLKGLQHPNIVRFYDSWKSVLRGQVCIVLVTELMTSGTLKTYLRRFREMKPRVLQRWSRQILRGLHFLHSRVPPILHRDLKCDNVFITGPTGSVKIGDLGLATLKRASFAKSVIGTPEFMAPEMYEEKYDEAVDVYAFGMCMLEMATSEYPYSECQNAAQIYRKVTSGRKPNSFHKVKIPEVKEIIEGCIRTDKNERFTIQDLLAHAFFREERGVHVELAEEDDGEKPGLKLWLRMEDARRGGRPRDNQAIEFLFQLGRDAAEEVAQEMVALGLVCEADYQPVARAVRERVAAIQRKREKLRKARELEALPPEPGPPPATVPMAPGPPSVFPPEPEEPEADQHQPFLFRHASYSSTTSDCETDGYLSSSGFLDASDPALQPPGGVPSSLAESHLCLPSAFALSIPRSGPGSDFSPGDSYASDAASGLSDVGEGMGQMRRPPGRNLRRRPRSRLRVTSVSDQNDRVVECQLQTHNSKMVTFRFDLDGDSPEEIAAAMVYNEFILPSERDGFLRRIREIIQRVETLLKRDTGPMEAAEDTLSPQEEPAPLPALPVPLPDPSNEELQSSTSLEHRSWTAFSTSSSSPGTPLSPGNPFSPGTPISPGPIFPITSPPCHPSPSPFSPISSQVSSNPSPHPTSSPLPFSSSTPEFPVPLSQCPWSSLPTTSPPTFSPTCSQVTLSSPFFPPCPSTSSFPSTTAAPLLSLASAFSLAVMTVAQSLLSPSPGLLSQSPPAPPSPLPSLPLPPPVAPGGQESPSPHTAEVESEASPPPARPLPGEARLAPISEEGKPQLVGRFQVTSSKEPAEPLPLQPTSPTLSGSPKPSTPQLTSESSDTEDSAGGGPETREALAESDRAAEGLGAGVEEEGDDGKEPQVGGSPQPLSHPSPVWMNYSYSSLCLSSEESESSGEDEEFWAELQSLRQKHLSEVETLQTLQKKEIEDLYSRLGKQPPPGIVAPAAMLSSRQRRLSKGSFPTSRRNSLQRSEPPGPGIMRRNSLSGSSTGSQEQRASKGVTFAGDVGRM
Sequence of EPHA5 (P54756 whole entry): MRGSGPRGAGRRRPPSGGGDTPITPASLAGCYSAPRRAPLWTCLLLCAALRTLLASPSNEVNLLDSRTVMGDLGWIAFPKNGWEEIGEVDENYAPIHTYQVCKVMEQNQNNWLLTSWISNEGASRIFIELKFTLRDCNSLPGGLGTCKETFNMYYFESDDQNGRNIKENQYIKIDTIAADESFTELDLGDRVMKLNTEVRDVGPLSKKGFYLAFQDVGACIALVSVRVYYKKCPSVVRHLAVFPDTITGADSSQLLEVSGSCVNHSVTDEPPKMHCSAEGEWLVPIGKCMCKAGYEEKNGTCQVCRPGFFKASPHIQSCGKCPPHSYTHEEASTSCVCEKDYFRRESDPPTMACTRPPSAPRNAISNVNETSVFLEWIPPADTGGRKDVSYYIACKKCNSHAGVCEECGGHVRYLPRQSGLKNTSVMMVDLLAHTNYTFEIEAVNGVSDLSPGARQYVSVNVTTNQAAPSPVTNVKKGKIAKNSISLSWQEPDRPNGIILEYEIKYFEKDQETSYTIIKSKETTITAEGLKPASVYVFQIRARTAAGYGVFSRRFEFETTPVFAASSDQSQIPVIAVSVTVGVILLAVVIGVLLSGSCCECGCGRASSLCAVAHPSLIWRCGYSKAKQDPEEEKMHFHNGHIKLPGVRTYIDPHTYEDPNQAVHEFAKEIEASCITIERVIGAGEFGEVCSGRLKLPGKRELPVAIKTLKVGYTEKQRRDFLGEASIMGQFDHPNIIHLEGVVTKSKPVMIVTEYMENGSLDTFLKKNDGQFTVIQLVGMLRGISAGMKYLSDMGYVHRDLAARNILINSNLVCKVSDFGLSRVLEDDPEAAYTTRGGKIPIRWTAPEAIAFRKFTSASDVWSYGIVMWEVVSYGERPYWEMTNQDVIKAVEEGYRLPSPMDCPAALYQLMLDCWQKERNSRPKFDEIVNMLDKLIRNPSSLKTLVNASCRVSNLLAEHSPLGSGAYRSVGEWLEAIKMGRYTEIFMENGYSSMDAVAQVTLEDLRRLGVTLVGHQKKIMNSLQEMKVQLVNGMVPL
Sequence of PIK3CD (O00329 whole entry): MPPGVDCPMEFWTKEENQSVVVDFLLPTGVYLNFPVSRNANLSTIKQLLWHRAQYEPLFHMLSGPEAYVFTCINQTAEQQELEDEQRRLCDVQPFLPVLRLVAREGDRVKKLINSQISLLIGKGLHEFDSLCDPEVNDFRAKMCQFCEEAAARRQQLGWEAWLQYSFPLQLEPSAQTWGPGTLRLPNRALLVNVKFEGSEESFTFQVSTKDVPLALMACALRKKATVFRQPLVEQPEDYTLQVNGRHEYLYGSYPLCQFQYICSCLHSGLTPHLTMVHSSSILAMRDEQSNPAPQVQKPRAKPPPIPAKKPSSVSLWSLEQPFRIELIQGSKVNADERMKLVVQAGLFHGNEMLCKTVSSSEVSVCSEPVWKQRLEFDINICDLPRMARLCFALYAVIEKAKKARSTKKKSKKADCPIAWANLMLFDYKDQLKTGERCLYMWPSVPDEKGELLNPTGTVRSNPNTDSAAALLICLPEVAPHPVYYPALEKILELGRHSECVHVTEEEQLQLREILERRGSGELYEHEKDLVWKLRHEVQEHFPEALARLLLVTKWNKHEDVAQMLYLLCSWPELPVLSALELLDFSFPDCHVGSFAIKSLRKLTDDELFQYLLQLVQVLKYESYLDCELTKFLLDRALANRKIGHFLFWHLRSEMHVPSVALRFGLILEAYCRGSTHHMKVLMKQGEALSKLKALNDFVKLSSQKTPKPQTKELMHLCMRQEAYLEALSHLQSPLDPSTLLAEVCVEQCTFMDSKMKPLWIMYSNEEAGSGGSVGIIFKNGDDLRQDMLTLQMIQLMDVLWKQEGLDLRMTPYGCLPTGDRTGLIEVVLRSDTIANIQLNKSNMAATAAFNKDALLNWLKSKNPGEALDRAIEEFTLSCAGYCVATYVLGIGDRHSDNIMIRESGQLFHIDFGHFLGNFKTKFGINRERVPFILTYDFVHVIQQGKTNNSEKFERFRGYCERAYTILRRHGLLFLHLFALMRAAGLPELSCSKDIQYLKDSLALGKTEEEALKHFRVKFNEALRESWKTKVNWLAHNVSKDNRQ
T2 sequence (Q9UK32 whole entry): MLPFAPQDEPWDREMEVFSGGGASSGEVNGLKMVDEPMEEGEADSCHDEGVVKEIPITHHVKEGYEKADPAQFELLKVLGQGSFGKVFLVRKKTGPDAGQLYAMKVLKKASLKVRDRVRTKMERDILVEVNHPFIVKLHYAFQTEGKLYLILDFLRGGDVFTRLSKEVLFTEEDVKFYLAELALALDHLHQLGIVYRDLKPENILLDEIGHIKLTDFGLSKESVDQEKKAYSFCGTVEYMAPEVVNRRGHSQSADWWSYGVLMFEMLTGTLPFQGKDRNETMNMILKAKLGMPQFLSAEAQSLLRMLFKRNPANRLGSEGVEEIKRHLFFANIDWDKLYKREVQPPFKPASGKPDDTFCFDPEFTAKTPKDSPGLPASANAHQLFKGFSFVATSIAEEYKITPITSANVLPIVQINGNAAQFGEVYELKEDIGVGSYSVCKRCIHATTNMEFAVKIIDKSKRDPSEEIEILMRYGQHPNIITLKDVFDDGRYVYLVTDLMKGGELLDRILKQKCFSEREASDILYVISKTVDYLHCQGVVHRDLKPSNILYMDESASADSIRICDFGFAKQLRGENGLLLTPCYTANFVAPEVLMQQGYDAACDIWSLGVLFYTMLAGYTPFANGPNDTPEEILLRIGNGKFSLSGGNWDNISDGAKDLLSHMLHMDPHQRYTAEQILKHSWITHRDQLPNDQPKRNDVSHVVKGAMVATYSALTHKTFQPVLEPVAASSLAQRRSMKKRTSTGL
Sequence of BMPR2 (Q13873 whole entry): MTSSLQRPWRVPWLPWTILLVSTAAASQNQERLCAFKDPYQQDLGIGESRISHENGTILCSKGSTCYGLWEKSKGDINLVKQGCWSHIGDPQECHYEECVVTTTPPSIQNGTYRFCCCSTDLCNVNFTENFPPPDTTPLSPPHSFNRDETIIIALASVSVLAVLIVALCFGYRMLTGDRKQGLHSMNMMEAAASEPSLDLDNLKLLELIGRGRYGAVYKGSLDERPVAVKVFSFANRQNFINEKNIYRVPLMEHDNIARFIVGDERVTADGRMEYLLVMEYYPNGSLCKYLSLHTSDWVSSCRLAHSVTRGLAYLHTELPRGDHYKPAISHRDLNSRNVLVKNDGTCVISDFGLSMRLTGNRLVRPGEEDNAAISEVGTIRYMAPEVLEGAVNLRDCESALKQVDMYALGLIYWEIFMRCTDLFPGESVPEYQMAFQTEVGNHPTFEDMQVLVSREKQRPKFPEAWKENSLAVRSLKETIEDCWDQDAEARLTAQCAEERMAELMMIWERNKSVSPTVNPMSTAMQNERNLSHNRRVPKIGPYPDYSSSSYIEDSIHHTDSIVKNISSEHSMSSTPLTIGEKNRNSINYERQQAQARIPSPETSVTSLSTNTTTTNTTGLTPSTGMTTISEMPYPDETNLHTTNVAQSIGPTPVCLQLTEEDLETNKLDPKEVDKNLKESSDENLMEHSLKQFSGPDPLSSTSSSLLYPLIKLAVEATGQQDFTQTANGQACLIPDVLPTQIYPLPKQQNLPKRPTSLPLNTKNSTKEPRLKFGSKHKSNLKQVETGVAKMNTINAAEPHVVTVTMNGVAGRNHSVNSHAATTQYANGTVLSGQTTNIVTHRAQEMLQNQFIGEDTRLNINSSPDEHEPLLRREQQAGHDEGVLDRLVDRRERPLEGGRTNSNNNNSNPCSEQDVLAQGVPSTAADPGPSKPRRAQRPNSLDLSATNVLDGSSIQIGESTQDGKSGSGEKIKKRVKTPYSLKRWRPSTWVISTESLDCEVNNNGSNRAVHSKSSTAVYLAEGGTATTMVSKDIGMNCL

Oc1ccc(C2=Cc3ccc(O)cc3OC2)cc1 [compound 1, idronoxil]
remaining binding at 10 µM (CLK2): 69%
remaining binding at 10 µM (MAPK3): 94%
remaining binding at 10 µM (MAP2K6): 85%
remaining binding at 10 µM (BMPR1A): 89%
remaining binding at 10 µM (HIPK3): 33%
remaining binding at 10 µM (WNK4): 95%
remaining binding at 10 µM (MTOR): 73%
remaining binding at 10 µM (CSNK2A2): 35%
remaining binding at 10 µM (PIK3CD): 86%
remaining binding at 10 µM (MAP2K7): 91%
remaining binding at 10 µM [1]: 95%
remaining binding at 10 µM (EPHB6): 53%
remaining binding at 10 µM (PAK4): 76%
remaining binding at 10 µM [2]: 76%
remaining binding at 10 µM (KIAA0999): 89%
remaining binding at 10 µM (BMPR2): 99%
remaining binding at 10 µM (EPHA5): 97%
remaining binding at 10 µM (RIOK3): 100%
remaining binding at 10 µM (CDK19): 99%
